The text below walks through data of ChEMBL document CHEMBL1142758, “Neuroprotective effects of naturally occurring biflavonoids” (2005).

SMILES strings stand for the structures.

Holding throughout (assay type): functional
The nature of assay [1]: Protective effect of compound on hydrogen peroxide-induced cell death in SH-SY5Y cells (concentration = 2 uM).
A short description of assay [2]: Protective effect of compound on hydrogen peroxide-induced cell death in SH-SY5Y cells (concentration = 0.4 uM).
Assay [3] is described as follows: Protective effect of compound on SNP-induced cell death in SH-SY5Y cells (concentration = 10 uM).
Assay [4] is described as follows: Protective effect of compound on Ab25 35-induced cell death in SH-SY5Y cells (concentration = 0.2 uM).
Assay [5] can be described thus: Protective effect of compound on SNP-induced cell death in SH-SY5Y cells (concentration = 0.4 uM).
Assay [6] in a line: Protective effect of compound on hydrogen peroxide-induced cell death in SH-SY5Y cells (concentration = 10 uM).
A short description of assay [7]: Protective effect of compound on Ab25 35-induced cell death in SH-SY5Y cells (concentration = 4 uM).
Assay [8] is described as follows: Protective effect of compound on Ab25 35-induced cell death in SH-SY5Y cells (concentration = 10 uM).
Assay [9] is described as follows: Protective effect of compound on SNP-induced cell death in SH-SY5Y cells (concentration = 2 uM).
Assay [10] can be described thus: Protective effects of test compounds on Ab25 35-induced cell death in SH-SY5Y cells (concentration = 10 uM).
The nature of assay [11]: Protective effect of test compound on Ab25 35-induced cell death in SH-SY5Y cells (concentration = 4 uM).
A short description of assay [12]: Protective effect of test compound on SNP-induced cell death in SH-SY5Y cells (concentration = 0.4 uM).
The nature of assay [13]: Protective effect of test compound on hydrogen peroxide-induced cell death in SH-SY5Y cells (concentration = 2 uM).
Assay [14] can be described thus: Protective effect of test compound on SNP-induced cell death in SH-SY5Y cells (concentration = 2 uM).
A short description of assay [15]: Protective effect of test compound on Ab25 35-induced cell death in SH-SY5Y cells (concentration = 0.2 uM).
Assay [16] in a line: Protective effect of test compound on Ab25 35-induced cell death in SH-SY5Y cells (concentration = 10 uM).
Assay [17] can be described thus: Protective effect of test compound on SNP-induced cell death in SH-SY5Y cells (concentration = 10 uM).
A short description of assay [18]: Protective effect of compound on compounds on SNP-induced cell death in SH-SY5Y cells (concentration = 0.4 uM).

Consider `COc1ccc(C2=CC(=O)C3C(O)=CC(O)=C(c4cc(-c5cc(=O)c6c(O)cc(O)cc6o5)ccc4OC)C3O2)cc1` (stereo unspecified), for which the Inhibition came to 28.7% in assay [1]; 40.1% in assay [2]; 23.5% in [3]; 19.7% in assay [4]; 6.9% in [5]; 55.1% in assay [6]. Also, the Inhibition in [7] amounted to 59.1%; in assay [8] it was 43.8 µM; in assay [9], 10.5%.
On to `COc1ccc(C2=CC(=O)C3C(O)=CC(O)=C(c4cc(-c5cc(=O)c6c(O)cc(OC)cc6o5)ccc4OC)C3O2)cc1` (stereo unspecified), for which the Inhibition in [1] was found to be 52.1%; in assay [2] it was 39.5%; in assay [3] it was 4.6%; in assay [10] it was 35.1 µM; in [4], 27.1%; in assay [5] it was 28.5%. Besides, the Inhibition worked out at 69.5% in [6], 38.1% in assay [7] and 8.1% in [9].
As to `O=C1C=C(c2ccc(O)cc2)OC2C(c3cc(-c4cc(=O)c5c(O)cc(O)cc5o4)ccc3O)=C(O)C=C(O)C12` (stereo unspecified), the Inhibition is 25.4 µM in assay [11]; 5.2 µM in [12]; 39.9 µM in assay [13]; 16.4 µM in [14]; 3.6 µM in assay [15]; 27% in assay [2]. The Inhibition in assay [6] came out at 62%; in assay [16], 31.8 µM; in [17] it was 40.5 µM.
Consider `COc1cc(O)c2c(=O)cc(-c3ccc(OC)c(C4=C(O)C=C(O)C5C(=O)C=C(c6ccc(O)cc6)OC45)c3)oc2c1` (stereo unspecified), for which the Inhibition in [1] is 12.2%; in assay [18] it was -0.1 µM; in [2], 11.3%; in assay [3], 32.4%; in assay [4], 29.5 µM; in [6] it was 35.7%. Further, the Inhibition in [7] was determined as 43.6%; in assay [8], 5.6%; in assay [9] it was 7.8%.
Regarding `COc1ccc(-c2cc(=O)c3c(O)cc(O)cc3o2)cc1C1=C(O)C=C(O)C2C(=O)C=C(c3ccc(O)cc3)OC12` (stereo unspecified), the Inhibition turned out to be 30.4% in assay [1]; 25.3% in assay [2]; 11% in [3]; 9.8% in assay [4]; 2.5% in assay [5]; 62.9% in assay [6]. In addition, the Inhibition in assay [7] is 1.9%; in assay [8] it was -7.5%; in [9], 4.8%.
Turning to `O=C1C=C(c2ccc(O)cc2)OC2C=C(O)C(Oc3ccc(-c4cc(=O)c5c(O)cc(O)cc5o4)cc3)=C(O)C12` (stereo unspecified), the Inhibition in assay [1] stood at 19.8%; in assay [2] it was 7.8%; in assay [3], 15%; in assay [4], 8.7%; in assay [5], 2.5%; in [6], 56%. The Inhibition in assay [7] was -19.9%; in [8], -10%; in [9] it was -9.4%.
For `COC1=CC2OC(c3ccc(O)cc3)=CC(=O)C2C(O)=C1Oc1ccc(-c2cc(=O)c3c(O)cc(O)cc3o2)cc1` (stereo unspecified), the Inhibition in assay [1] is 23.9%; in assay [2] it was -3.5%; in [3], -25%; in assay [4] it was 18%; in assay [5], -16%; in assay [6] it was 68.1%. Besides, the Inhibition in assay [7] is 11%; in [8], -0.2%; in [9] it was -14.8%.
As for `O=c1cc(-c2ccc(Oc3cc(-c4cc(=O)c5c(O)cc(O)cc5o4)ccc3O)cc2)oc2cc(O)cc(O)c12` [OCHNAFLAVONE], the Inhibition in [1] is -12.1%; in assay [2], -3.6%; in [3], 9.3%; in [4], -12.7%; in [5] it was 10%; in assay [6], -32.7%. The Inhibition in [7] is -32.1%; in assay [8] it was -1.9%; in [9], 7.7%.
Regarding `COc1ccc(-c2cc(=O)c3c(O)cc(O)cc3o2)cc1Oc1ccc(-c2cc(=O)c3c(O)cc(O)cc3o2)cc1`, the Inhibition in assay [1] was -1.2%; in assay [2] it was 1.8%; in assay [3], 1.6%; in [4], 13%; in [5], 2.9%; in assay [6], 12.1%. Further, the Inhibition turned out to be 0.9% in [7], 14.8% in [8] and 0.1% in [9].
